Data reported in patent US10632181B2, “Composition, containing RGD motif-containing peptide or fragment thereof, for treating burns and glaucoma, alleviating skin wrinkles, and promoting hair growth” (HUONS CO., LTD., priority 2014, dated 2020).
Read-outs that look alike come from different tables or passages of the source. Positions of bridges follow the written chain, without caps; N, C: chain ends. No end group written: not given here.

Assays:
skin [1] = test: Safety assessment of test product on skin; settings: use for 4 weeks, dermatologist's physical examination
Description: (§6) Women aged 30-65 having wrinkles around eyes were tested. […] They had second and third visits at the interval of 2 weeks after the start of use, and at each visit, were required to respond to various types of assessment and investigation defined in the experiment.
(§7) Furthermore, safety assessment was performed, and for safety of clinical test product, in all subjects having used the test product at least once, abnormal responses found at the second week and fourth week after use and abnormal responses reported during the test period were all used as safety assessment data of the product.

[2] = test system: 2-degree burns of male SD rats; test: Burn treatment test: burn wound area; type: in vivo, SD (Sprague-Dawley) rats
Description: The experiment was carried out with 55 male SD (Sprague-Dawley) rats that were divided into […] groups: 5 rats for normal group (1 group, G1), 9-10 rats for negative control (1 group, G2), 30 rats for experimental group (3 groups, 10 rats in each group, G3, G4, G5), and 9-10 rats for positive control (1 group, G6). In the remaining groups except normal group, burned male SD rats was used for experiment. After SD rats were anesthesized, 2-degree burns, 2 cm in diameter, were induced on the SD rats using an aluminum electric soldering iron.
Test substance HU022 (SEQ ID NO:1) (G3, G4, G5), normal saline solution (G2) and Fiblast (G6) were applied to the skin of the burned male SD rats repeatedly once a day seven times a week for 7 days. Fiblast was applied to control group (G6) in 10 μg/dose/head, and the experimental group was divided into 3 groups and test substance was applied to each group in 3.3 μg/dose/head (G3), 10 μg/dose/head (G4), and 30 μg/dose/head (G5).
After burn was induced, imaging was performed before test substance was applied, and imaging was performed on 1st, 4th, 8th, 11th, and 15th days, and after imaging, test substance was applied and the applied site was covered with gauze and wrapped with tegaderm. Furthermore, images taken for measuring the burn wound area were analyzed using Image analyzer program.
With the measurement results, parametric comparison determined significance via Student's t-test and One-Way ANOVA, and significance testing relative to negative control was conducted. Furthermore, with the histopathology test results of burns, Kruskal-Wallis' H-test was conducted, and when significance between groups was identified, comparison between groups was performed through Mann-Whitney U-test. The computation program for statistics was SPSS 10.1 K. P<0.05 was determined to be statistically significant.

[3] = Hair growth test: body weight; type: in vivo; settings: skin
Description: (§1) This test was conducted to assess the influence on hair growth of C57BL/6 mouse when 4 types of test substances, HU024 (SEQ ID NO:2), HU025 (SEQ ID NO:3), HU026 (SEQ ID NO:4), and HU027 (SEQ ID NO:5), were applied to the skin for 14 days.
(§2) The group design was set to negative control (sterile water for injection G1), test substance HU024 (SEQ ID NO:2) 20 ug/head/day (G2), test substance HU024 (SEQ ID NO:2) 60 ug/head/day (G3), test substance HU025 (SEQ ID NO:3) 20 ug/head/day (G4), test substance HU025 (SEQ ID NO:3) 60 ug/head/day (G5), test substance HU026 (SEQ ID NO:4) 20 ug/head/day (G6), test substance HU026 (SEQ ID NO:4) 60 ug/head/day (G7), test substance HU027 (SEQ ID NO:5) 20 ug/head/day (G8), test substance HU027 (SEQ ID NO:5) 60 ug/head/day (G9) and positive control minoxyl 3% (G10) administered groups. Each group had 10 animals.
(§3) After the animal was put under anesthesia using zoletil (1 mL/kg, i.p), the back of the animal was primarily shaved using a depilator, and Veet depilatory was evenly applied on the back. After about 5 minutes, the applied site was cleaned up using gauze moistened with sterile water for injection. Only animal whose shaved back was scarlet in color was used for group separation. The test substance was applied to the same site daily once per day, 7 times per week for 14 days, and the test substance was evenly applied to the shaved site (on the back) by rubbing with a glass rod about 10 times.
The test item was measurements of dead animal, general syndrome, weight change, hair growing area and hair weight, and comparison with negative control was conducted.
(§4) The measurement results were analyzed using SPSS (ver. 10.1K), Duncan t-test for weight changes was conducted through one-way analysis of variance, hair weight was compared between groups using Student's t-test, and hair growing area was compared between groups through nonparametric multiple comparison procedures Whitney-Mann methods. P<0.05 was determined to be statistically significant.

[4] = test system: hair growth of C57BL/6 mouse; test: Hair growth test: hair weight; type: in vivo
Description: as §1, §2, §3
(§5) The hair growing area (%) relative to the test substance-applied area was measured and determined, and Image analyzer program (Image Pro Plus ver. 6.3, Cybermetics, USA) was used to measure. It was measured on the 1st, 3rd, 7th, 10th and 14th days after test substance administration. Imaging was performed together with the measurements on the date when the hair area was measured. On the next day after the end of application, the animals were killed by CO2 gas, and hair on the hair growing area was removed by a depilator and hair weight was measured.
as §4

[5] = test system: hair growth of C57BL/6 mouse; test: Hair growth test: hair growing area; type: in vivo
Description: as §1, §2, §3
as §5, with “It was measured on the 1st, 3rd, 7th, 10th and 14th days after test substance administration.” left out
as §4

skin [6] = settings: in vivo
Description: as §6, §7

For “HU022: polypeptide consisting of 452nd-509th amino acids of ADAM 15 (GenBank AAH14566.1), 58 amino acids; commercial product (EYEGENE Inc.)”, the “abnormal response / skin irritation” value (skin [1]) was “safe product not causing irritation to the skin”, the “BURN WOUNDED AREA” value ([2]; 3.3 μg/head/day, Day 1) was 4.8 ± 0.8 cm^2 and the “BURN WOUNDED AREA (%)” value ([2]; 3.3 μg/head/day, Day 1) was 100.0 ± 16.3%. For the same substance, the “BURN WOUNDED AREA” value ([2]; 3.3 μg/head/day, Day 4) was 3.8 ± 0.6 cm^2, the “BURN WOUNDED AREA (%)” value ([2]; 3.3 μg/head/day, Day 4) was 79.2 ± 13.571% and the “BURN WOUNDED AREA” value ([2]; 3.3 μg/head/day, Day 8) was 2.9 ± 0.6 cm^2. For the same substance, the “BURN WOUNDED AREA (%)” value ([2]; 3.3 μg/head/day, Day 8) was 60.8 ± 11.9%, the “BURN WOUNDED AREA” value ([2]; 3.3 μg/head/day, Day 11) was 2.5 ± 0.7 cm^2 and the “BURN WOUNDED AREA (%)” value ([2]; 3.3 μg/head/day, Day 11) was 51.6 ± 15.7%. For the same substance, the “BURN WOUNDED AREA” value ([2]; 3.3 μg/head/day, Day 15) was 1.9 ± 0.6 cm^2, the “BURN WOUNDED AREA (%)” value ([2]; 3.3 μg/head/day, Day 15) was 40.1 ± 12.8% and the “BURN WOUNDED AREA” value ([2]; 10 μg/head/day, Day 1) was 4.3 ± 0.9 cm^2. The “BURN WOUNDED AREA (%)” value ([2]; 10 μg/head/day, Day 1) was 100.0 ± 23.0%, the “BURN WOUNDED AREA” value ([2]; 10 μg/head/day, Day 4) was 3.6 ± 0.8 cm^2 and the “BURN WOUNDED AREA (%)” value ([2]; 10 μg/head/day, Day 4) was 82.7 ± 18.0%. For the same substance, the “BURN WOUNDED AREA” value ([2]; 10 μg/head/day, Day 8) was 2.9 ± 0.5 cm^2, the “BURN WOUNDED AREA (%)” value ([2]; 10 μg/head/day, Day 8) was 68.2 ± 12.3% and the “BURN WOUNDED AREA” value ([2]; 10 μg/head/day, Day 11) was 2.4 ± 0.3 cm^2. For the same substance, the “BURN WOUNDED AREA (%)” value ([2]; 10 μg/head/day, Day 11) was 56.8 ± 7.7%, the “BURN WOUNDED AREA” value ([2]; 10 μg/head/day, Day 15) was 2.2 ± 0.4 cm^2 and the “BURN WOUNDED AREA (%)” value ([2]; 10 μg/head/day, Day 15) was 51.9 ± 8.9%. For the same substance, the “BURN WOUNDED AREA” value ([2]; 30 μg/head/day, Day 1) was 5.2 ± 0.4 cm^2, the “BURN WOUNDED AREA (%)” value ([2]; 30 μg/head/day, Day 1) was 100.0 ± 7.0% and the “BURN WOUNDED AREA” value ([2]; 30 μg/head/day, Day 4) was 3.5 ± 0.5 cm^2. For the same substance, the “BURN WOUNDED AREA (%)” value ([2]; 30 μg/head/day, Day 4) was 67.6 ± 9.3 %, the “BURN WOUNDED AREA” value ([2]; 30 μg/head/day, Day 8) was 2.9 ± 0.3 cm^2 and the “BURN WOUNDED AREA (%)” value ([2]; 30 μg/head/day, Day 8) was 55.9 ± 5.1%. The “BURN WOUNDED AREA” value ([2]; 30 μg/head/day, Day 11) was 2.3 ± 0.1 cm^2, the “BURN WOUNDED AREA (%)” value ([2]; 30 μg/head/day, Day 11) was 43.9 ± 2.6% and the “BURN WOUNDED AREA” value ([2]; 30 μg/head/day, Day 15) was 1.8 ± 0.4 cm^2. The “BURN WOUNDED AREA (%)” value ([2]; 30 μg/head/day, Day 15) was 35.6 ± 8.4%.

With “HU024 (RPTRGDCDLPEFCPG; disulfide 7-13; listed as Homo sapiens)” the “BODY WEIGHTS” value ([3]; 20 ug/head/day, Day 1) was 21.34 ± 0.60 g, the “BODY WEIGHTS” value ([3]; 20 ug/head/day, Day 7) was 22.64 ± 0.76 g and the “BODY WEIGHTS” value ([3]; 20 ug/head/day, Day 11) was 24.15 ± 0.86 g. The “BODY WEIGHTS” value ([3]; 60 ug/head/day, Day 1) was 21.54 ± 0.53 g, the “BODY WEIGHTS” value ([3]; 60 ug/head/day, Day 7) was 23.02 ± 0.74 g and the “BODY WEIGHTS” value ([3]; 60 ug/head/day, Day 11) was 24.30 ± 1.08 g. For the same substance, the “HAIR WEIGHTS” value ([4]; 20 ug/head/day for 14 days) was 0.016 ± 0.003 g, the “HAIR WEIGHTS” value ([4]; 60 ug/head/day for 14 days) was 0.023 ± 0.008 g and the “HAIR AREA (%)” value ([5]; 20 ug/head/day, Day 1) was 0.02 ± 0.01%. The “HAIR AREA (%)” value ([5]; 20 ug/head/day, Day 4) was 0.06 ± 0.04%, the “HAIR AREA (%)” value ([5]; 20 ug/head/day, Day 7) was 0.44 ± 0.19% and the “HAIR AREA (%)” value ([5]; 20 ug/head/day, Day 10) was 7.55 ± 2.56%. The “HAIR AREA (%)” value ([5]; 20 ug/head/day, Day 14) was 67.34 ± 9.03%, the “HAIR AREA (%)” value ([5]; 60 ug/head/day, Day 1) was 0.04 ± 0.04% and the “HAIR AREA (%)” value ([5]; 60 ug/head/day, Day 4) was 0.00 ± 0.00%. For the same substance, the “HAIR AREA (%)” value ([5]; 60 ug/head/day, Day 7) was 0.85 ± 0.75%, the “HAIR AREA (%)” value ([5]; 60 ug/head/day, Day 10) was 6.56 ± 3.04% and the “HAIR AREA (%)” value ([5]; 60 ug/head/day, Day 14) was 55.69 ± 12.45%. The “abnormal response / skin irritation” value (skin [6]) was “safe product not causing irritation to the skin”.
